Data reported in patent publication US10016400B2, “Composition including rapamycin as active ingredient for preventing or treating hearing loss” (AJOU UNIVERSITY INDUSTRY—ACADEMIC COOPERATION FOUNDATION, priority 2014, dated 2018).

Legend:
HEI-OC1 cells [1] = experiment: RPM effects on apoptosis, MTS assay; format: cell-based
Method: (§1) An auditory cell line, e.g., House-Ear Institute-organ of Corti 1 (HEI-OC1), that expresses auditory genes was used. HEI-OC1 cells were cultured under conditions of a temperature of 33° C. and a CO2 (10%) by adding 10% fetal bovine serum (FBS) and 25 U/ml interferon-gamma to a Dulbecco's modified Eagle's Medium (DMEM) including high concentrations of glutamine. At about 90% confluence of the cultured cells on a bottom surface of a plate, the cell density was maintained within an appropriate range by performing serial subcultures using 2.5% Trypsin-EDTA.
Here, RPM was used as an inducer of autophagy and chloroquine (CQ) was used as an inhibitor of autophagy in terms of pretreatment and combination treatment.

[2] = in vivo; cited from earlier work
[3] = test system: auditory outer and inner hair cells; experiment: Autophagy in cochlear hair cells, immunohistochemistry with LC3 antibodies; format: in vivo; details: GM treatment, rat cochleae
Method: A total of 24 rats were classified into one group of 12 rats treated with 50 pM of rapamycin (RRM) and another group of 12 rats treated with 100 pM of RPM. […] To allow RPM to be well absorbed inside the tympanum, the rats were placed in a lateral decubitus position and stabilized. Meanwhile, rats of which right ears were treated with physiological saline were classified as a control group.
To observe autophagy in the auditory outer hair cells, the cochleae of the rats of Example 1 were subjected to immunohistochemistry using microtubule-associated LC3 (Microtubule-associated protein 1A/1B-light chain 3) antibodies.

HEI-OC1 cells [4] = experiment: Autophagy in auditory cell line (LC3 staining, western blot, real-time quantitative PCR); format: cell-based; details: HEI-OC1 cells treated with GM
Method: as §1
To observe autophagy in the GM-treated auditory cells, the HEI-OC1 cells, which are the auditory cell line of Example 1-2, were subjected to immunohistochemistry using LC3 antibody, thereby staining autophagosomes, the expression of autophagy-related proteins, e.g., LC3, Beclin-1, and RAS-related GTP-binding proteins (Rab7) was confirmed according to the western blot, and the processes of autophagy were analyzed through real-time quantitative PCR.

Q: With `CCN(CC)CCCC(C)Nc1ccnc2cc(Cl)ccc12` (centres unmarked) [CQ, chloroquine] as the compound, how does the “apoptosis with GM and autophagy inhibitor” value (HEI-OC1 cells [1]; 5 mM GM with 25 μM CQ) read?
A: The value was “more likely to be undergone the apoptosis”.

Q: With `CO[C@H]1C[C@@H]2CC[C@@H](C)[C@@](O)(O2)C(=O)C(=O)N2CCCC[C@H]2C(=O)O[C@H]([C@H](C)C[C@@H]2CC[C@@H](O)[C@H](OC)C2)CC(=O)[C@H](C)/C=C(\C)[C@@H](O)[C@@H](OC)C(=O)[C@H](C)C[C@H](C)/C=C/C=C/C=C/1C` [RPM, rapamycin] as the compound, how does the “LD50 value (dose lethal to 50% of the population)” value [2] read?
A: Its value is “at least 2 g/kg”.

Q: For gentamicin [GM], which “autophagosomes having a double membrane in auditory outer and inner hair cells” value [3] is on record?
A: Its value is “increase in autophagosomes”.

Q: What about the “HEI-OC1 cells undergone apoptosis” value (HEI-OC1 cells [1]; 5 mM of GM for 48 hours) of the same compound?
A: Its value is “about 25%”.

Q: And the number of autophagosomes (HEI-OC1 cells [4])?
A: Its number of autophagosomes is “increased over time”.
